Measured values from publication PMC8199245, “Serotonin Promotes Serum Albumin Interaction with the Monomeric Amyloid β Peptide” (International Journal of Molecular Sciences, 2021).
“Also recorded” adds a separate entry of the source.

Assays:
[1] = target: T1, HSA–monomeric Aβ40 (recombinant human Aβ40) (Homo sapiens, UniProt P02768); assay: SPR of HSA interaction with immobilized monomeric Aβ40, without/with SRO or TRP; settings: SPR 25 °C; for Kd: KD (apparent, HSA–Aβ40), KD × 10^7, i.e. value × 10^−7 M; for Kd / ka (effective, HSA–Aβ40) / kd (effective, HSA–Aβ40): HSA 5–60 µM, mean ± SD; for ka (effective, HSA–Aβ40): ka × 10^−3, i.e. value × 10^3 M^−1s^−1; for kd (effective, HSA–Aβ40): kd × 10^4, i.e. value × 10^−4 s^−1
Procedure: (§1) The recombinant human Aβ40 or Aβ42 sample was immobilized on the surface of the SPR sensor chip by amine coupling, followed by removal from the surface of the non-covalently bound Aβ molecules by a 2% SDS water solution [12]. […] (5–60 µM) was used as an analyte.
(§2) Aβ40/Aβ42 was immobilized on the sensor chip’s surface by amine coupling.
(§3) Recombinant human Aβ40/Aβ42 samples were pretreated for SPR measurements mainly as described in [46]. The freeze-dried Aβ sample was dissolved in neat TFA at a concentration of 0.5–1 mg/mL. The solution was sonicated for 30 s. TFA was evaporated using Eppendorf Concentrator plus. The dried Aβ sample was dissolved in DMSO at a concentration of 2 mg/mL, and stored at −20 °C.
(§4) SPR measurements were performed at 25 °C using a Bio-Rad ProteOn™ XPR36 instrument mainly as previously described. Ligand (57 μg/mL recombinant human Aβ40/Aβ42 in 10 mM sodium acetate, pH 4.5 buffer) was immobilized on a ProteOn GLH sensor chip surface (up to 7000–9000 RUs) by amine coupling. The remaining activated amine groups on the chip surface were blocked by 1 M ethanolamine solution. The non-covalently bound Aβ40/Aβ42 molecules were washed from the chip surface with 2% SDS water solution until stabilization of the signal. […] The sensor chip surface was regenerated by passage of 10 mM EDTA pH 7.9 solution containing 2% SDS. […] The double-referenced SPR sensograms were globally fitted according to the one-site binding model using Bio-Rad ProteOn Manager™ v.3.1 software.

HSA–monomeric Aβ [2] = assay: SPR of HSA interaction with monomeric Aβ (isoform not given); format: binding, human
Aβ42 = system: Aβ42; set-up: method as in PMID 29131485; settings: cited from earlier work
HSA [3] = system: HSA; set-up: method as in PMID 17191887; settings: read-out: equilibrium dissociation constant (KD) for the HSA–SRO complex; cited from earlier work
HSA [4] = assay: Glutaraldehyde crosslinking of HSA with SDS-PAGE; set-up: species or system human; settings: HSA 36 µM, 37 °C; for effect on quaternary structure of HSA: 1 mM ligand, glutaraldehyde crosslinking, overall statements also rest on DLS
[5] = target: T2, HSA–monomeric Aβ42 (recombinant human Aβ42) (Homo sapiens, UniProt P02768); assay: SPR of HSA interaction with immobilized monomeric Aβ42, without/with SRO or TRP; settings: SPR 25 °C; for Kd: KD (apparent, HSA–Aβ42), KD × 10^7, i.e. value × 10^−7 M; for Kd / ka (effective, HSA–Aβ42) / kd (effective, HSA–Aβ42): HSA 5–60 µM, mean ± SD; for ka (effective, HSA–Aβ42): ka × 10^−3, i.e. value × 10^3 M^−1s^−1; for kd (effective, HSA–Aβ42): kd × 10^4, i.e. value × 10^−4 s^−1
Procedure: as §1, §2, §3, §4

HSA [6] = assay: Dynamic light scattering of HSA; set-up: species or system human; settings: 1 mM SRO, HSA 36 µM, 25 °C, pH 7.4
Procedure: The standard deviations are indicated.
The back-scattered light from a 4 mW He/Ne laser (632.8 nm) was collected at an angle of 173°. The acquisition time for a single autocorrelation function was 45 s. The resulting autocorrelation functions are averaged values from 20 measurements. The volume–size distributions were calculated using the following parameters: a refractive index of 1.330 and a viscosity value of 0.8882 cP.

[7] = system: Aβ level in interstitial brain fluid; settings: direct infusion into the hippocampus, mouse model of AD; cited from earlier work
Procedure: (§5) The SRO concentration in plasma is 0.28–1.7 µM [40], but in the synaptic cleft it may reach 6 mM and 55 nM after SRO diffuses into the extracellular compartment.

[8] = physiological (endogenous), cited from earlier work
Procedure: as §5

[9] = system: HSA-induced suppression of Aβ fibrillation; set-up: method as in 2 sources, ref 5 = [5]; PMID 10347147; doi:10.1074/jbc.274.23.15990; 5. Bohrmann B. Tjernberg L. Kuner P. Poli S. Levet-Trafit B. Naslund J. Richards G. Huber W. Dobeli H. Nordstedt C. Endogenous proteins controlling amyloid beta-peptide polymerization. Possible implic ||| ref 14 = [14]; PMID 29409811; doi:10.1016/j.jmb.2018.01.008; 14. Bode D.C. Stanyon H.F. Hirani T. Baker M.D. Nield J. Viles J.H. Serum albumin’s protective inhibition of amyloid-β fiber formation is suppressed by cholesterol, fatty acids and warfarin J. Mol. Bi; settings: cited from earlier work
[10] = system: brain Aβ deposition in AD mouse models; settings: dietary; cited from earlier work
Excerpt: (§6) An alternative, less invasive approach to the lowering of the free Aβ level in the brain is a pharmacologically guided shift in the equilibrium between HSA and Aβ towards their complex. The latter possibility was recently confirmed by arachidonic/linoleic-aci ...

HSA–monomeric Aβ [11] = settings: cited from earlier work
Excerpt: as §6

[12] = target: T2, HSA–monomeric Aβ42 (recombinant human Aβ42); set-up: method as in PMID 30685090; settings: cited from earlier work
[13] = target: T1, HSA–monomeric Aβ40 (recombinant human Aβ40); set-up: method as in PMID 30685090; settings: cited from earlier work
HSA [14] = settings: cited from earlier work
[15] = 1 mM SRO, main cause of KD decrease

T2 sequence (P05067 672-713): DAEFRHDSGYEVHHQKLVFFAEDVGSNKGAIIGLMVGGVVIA
T2 sequence (P02768 25-609): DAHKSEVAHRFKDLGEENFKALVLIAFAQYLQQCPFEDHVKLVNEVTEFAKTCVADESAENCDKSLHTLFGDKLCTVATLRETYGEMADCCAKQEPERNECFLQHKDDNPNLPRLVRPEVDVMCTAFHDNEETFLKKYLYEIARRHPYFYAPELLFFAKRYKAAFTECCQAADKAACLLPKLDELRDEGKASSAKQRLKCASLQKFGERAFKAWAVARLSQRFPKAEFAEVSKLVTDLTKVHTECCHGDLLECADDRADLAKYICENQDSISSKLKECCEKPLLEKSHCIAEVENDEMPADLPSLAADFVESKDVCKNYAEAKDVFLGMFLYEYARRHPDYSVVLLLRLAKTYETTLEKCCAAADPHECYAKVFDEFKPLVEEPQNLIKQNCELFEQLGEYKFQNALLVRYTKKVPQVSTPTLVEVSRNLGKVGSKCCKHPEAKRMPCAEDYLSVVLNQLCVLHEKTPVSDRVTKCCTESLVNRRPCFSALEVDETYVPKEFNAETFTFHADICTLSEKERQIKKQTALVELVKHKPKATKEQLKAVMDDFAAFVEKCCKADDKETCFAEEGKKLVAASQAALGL
T1 sequence (P05067 672-711): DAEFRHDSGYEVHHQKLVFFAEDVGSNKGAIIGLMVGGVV
T1 sequence (P02768 25-609): as the sequence (P02768 25-609) above

Compound | Kd ([1]; 10 µM HSA ligand, pH 7.4) | Kd ([1]; 1 mM HSA ligand, pH 7.4) | ka (effective, HSA–Aβ40) ([1]; 10 µM HSA ligand, pH 7.4) | ka (effective, HSA–Aβ40) ([1]; 100 µM HSA ligand, pH 7.4) | ka (effective, HSA–Aβ40) ([1]; 1 mM HSA ligand, pH 7.4) | kd (effective, HSA–Aβ40) ([1]; 10 µM HSA ligand, pH 7.4) | kd (effective, HSA–Aβ40) ([1]; 100 µM HSA ligand, pH 7.4) | kd (effective, HSA–Aβ40) ([1]; 1 mM HSA ligand, pH 7.4) | effect on HSA's affinity to monomeric Aβ / activation of HSA–Aβ interaction (HSA–monomeric Aβ [2]; general statement, SPR) | effect on quaternary structure of HSA (HSA [4]) | Kd ([5]; 10 µM HSA ligand, pH 7.4) | Kd ([5]; 1 mM HSA ligand, pH 7.4) | ka (effective, HSA–Aβ42) ([5]; 10 µM HSA ligand, pH 7.4) | ka (effective, HSA–Aβ42) ([5]; 100 µM HSA ligand, pH 7.4) | ka (effective, HSA–Aβ42) ([5]; 1 mM HSA ligand, pH 7.4) | kd (effective, HSA–Aβ42) ([5]; 10 µM HSA ligand, pH 7.4) | kd (effective, HSA–Aβ42) ([5]; 100 µM HSA ligand, pH 7.4) | effect on HSA-induced suppression of Aβ fibrillation [9] | effect on HSA affinity to Aβ (HSA–monomeric Aβ [11]) | fold decrease in KD of HSA–monomeric Aβ42 [12] | also measured
NCCc1c[nH]c2ccc(O)cc12 [SRO, 5-hydroxytryptamine] | 0.04 ± 0.02 µM | 0.009 ± 0.005 µM | 0.7 ± 0.2 × 10^−3, M^−1s^−1 | 1.5 ± 1.2 × 10^−3, M^−1s^−1 | 1.0 ± 0.5 × 10^−3, M^−1s^−1 | 0.26 ± 0.03 × 10^4, s^−1 | 0.19 ± 0.12 × 10^4, s^−1 | 0.09 ± 0.05 × 10^4, s^−1 | the most potent activator of HSA–Aβ interaction reported to date | more distinct changes in the quaternary structure of HSA, relative to the TRP-induced effects; also recorded: more marked changes in the quaternary structure of HSA | 0.04 ± 0.02 µM | 0.007 ± 0.0015 µM | 0.6 ± 0.4 × 10^−3, M^−1s^−1 | 0.9 ± 0.2 × 10^−3, M^−1s^−1 | 1.2 ± 0.2 × 10^−3, M^−1s^−1 | 0.20 ± 0.14 × 10^4, s^−1 | 0.08 ± 0.02 × 10^4, s^−1 | – | – | – | factor of decrease in apparent KD / increase in affinity of HSA–Aβ40 ([1]; 1 mM SRO vs no ligand, pH 7.4): 7 factor; effect on dissociation of HSA–Aβ40 complex [1, 15]: slowdown of the dissociation process; Kd ([1]; 100 µM HSA ligand, pH 7.4): 0.015 ± 0.013 µM; effect on HSA's affinity to Aβ (HSA–monomeric Aβ [2]; 10 µM SRO, SPR 25 °C): absence of a marked influence; fold decrease in KD of HSA–Aβ (HSA–monomeric Aβ [2]; up to, vs no ligand): ≤ 17 fold; inhibition of Aβ42 fibrillation (Aβ42; 50–100 µM SRO): efficient inhibition of Aβ42 fibrillation; also recorded: potent inhibition of Aβ42 fibrillation; Kd (HSA [3]): 1.6 µM; fold increase in content of HSA high-molecular-weight forms (at the expense of the monomer) (HSA [4]; 1 mM SRO, 0.02% glutaraldehyde, 1 h, pH 7.4): approximately 2 fold; factor of decrease in apparent KD / increase in affinity of HSA–Aβ42 ([5]; 1 mM SRO vs no ligand, pH 7.4): 17 factor; effect on dissociation of HSA–Aβ42 complex [5, 15]: slowdown of the dissociation process; Kd ([5]; 100 µM HSA ligand, pH 7.4): 0.009 ± 0.004 µM; kd (effective, HSA–Aβ42) ([5]; 1 mM HSA ligand, pH 7.4): 0.086 ± 0.009 × 10^4, s^−1; accumulation of multimeric HSA forms (DLS), compared with TRP (HSA [6]): more prominent accumulation of its multimeric forms; Aβ level in interstitial brain fluid [7]: decrease in the Aβ level in interstitial brain fluid; SRO concentration after diffusion into the extracellular compartment ([8]; may reach): ≤ 55 nM; SRO concentration in the synaptic cleft ([8]; may reach): ≤ 6 mM; SRO concentration in plasma [8]: 0.28 to 1.7 µM
CC(=O)CC(c1ccccc1)c1c(O)c2ccccc2oc1=O (stereo not drawn) [warfarin] | – | – | – | – | – | – | – | – | – | – | – | – | – | – | – | – | – | prevent HSA-induced suppression of Aβ fibrillation | – | – | –
CCCCC/C=C\C/C=C\CCCCCCCC(=O)O [linoleic acid] | – | – | – | – | – | – | – | – | – | – | – | – | – | – | – | – | – | – | enhancement of HSA affinity to Aβ | 3 fold | effect on brain Aβ deposition [10]: reduces brain Aβ deposition; fold decrease in KD of HSA–monomeric Aβ40 [13]: 3 fold
CCCCC/C=C\C/C=C\C/C=C\C/C=C\CCCC(=O)O [arachidonic acid] | – | – | – | – | – | – | – | – | – | – | – | – | – | – | – | – | – | – | enhancement of HSA affinity to Aβ | 3 fold | fold decrease in KD of HSA–monomeric Aβ40 [13]: 3 fold
CC(C)CCC[C@@H](C)[C@H]1CC[C@H]2[C@@H]3CC=C4C[C@@H](O)CC[C@]4(C)[C@H]3CC[C@]12C [cholesterol] | – | – | – | – | – | – | – | – | – | – | – | – | – | – | – | – | – | prevent HSA-induced suppression of Aβ fibrillation | – | – | –
N[C@@H](Cc1c[nH]c2ccccc12)C(=O)O [TRP, L-tryptophan] | 0.08 ± 0.04 µM | 0.07 ± 0.04 µM | 0.7 ± 0.2 × 10^−3, M^−1s^−1 | 0.47 ± 0.15 × 10^−3, M^−1s^−1 | 0.6 ± 0.2 × 10^−3, M^−1s^−1 | 0.49 ± 0.12 × 10^4, s^−1 | 0.53 ± 0.17 × 10^4, s^−1 | 0.4 ± 0.2 × 10^4, s^−1 | does not affect HSA’s affinity to monomeric Aβ; also recorded: did not affect HSA’s effective affinity for Aβ; also recorded: inactive | did not affect the quaternary structure of HSA | 0.06 ± 0.04 µM | 0.06 ± 0.03 µM | 0.8 ± 0.4 × 10^−3, M^−1s^−1 | 0.5 ± 0.3 × 10^−3, M^−1s^−1 | 0.29 ± 0.07 × 10^−3, M^−1s^−1 | 0.4 ± 0.2 × 10^4, s^−1 | 0.7 ± 0.6 × 10^4, s^−1 | – | – | – | effect on HSA's apparent affinity to Aβ40 ([1]; 1 mM ligand): did not affect HSA’s apparent affinity; effect on kinetics of HSA–Aβ interaction (HSA–monomeric Aβ [2]; general statement, SPR): slowdown of the association and dissociation processes; also recorded: slowed their association and dissociation; inhibition of Aβ42 fibrillation compared with SRO (Aβ42): markedly less effective; also recorded: much less efficient inhibition of Aβ42 fibrillation; equilibrium association constant of TRP with HSA (HSA [14]): 27000 M⁻¹; effect on kinetics of HSA–Aβ42 interaction ([5]; 1 mM TRP): slowdown of the association and dissociation processes; effect on HSA's apparent affinity to Aβ42 ([5]; 1 mM ligand): did not affect HSA’s apparent affinity
